Test results reported in ChEMBL document CHEMBL5291721, “A preclinical secondary pharmacology resource illuminates target-adverse drug reaction associations of marketed drugs” (Nat Commun, 2023).

Columns and labels:
[1] = biological target: T1, Muscarinic acetylcholine receptor M2 (Homo sapiens, UniProt P08172); assay type: functional, cell-based
T1 sequence (P08172 whole entry): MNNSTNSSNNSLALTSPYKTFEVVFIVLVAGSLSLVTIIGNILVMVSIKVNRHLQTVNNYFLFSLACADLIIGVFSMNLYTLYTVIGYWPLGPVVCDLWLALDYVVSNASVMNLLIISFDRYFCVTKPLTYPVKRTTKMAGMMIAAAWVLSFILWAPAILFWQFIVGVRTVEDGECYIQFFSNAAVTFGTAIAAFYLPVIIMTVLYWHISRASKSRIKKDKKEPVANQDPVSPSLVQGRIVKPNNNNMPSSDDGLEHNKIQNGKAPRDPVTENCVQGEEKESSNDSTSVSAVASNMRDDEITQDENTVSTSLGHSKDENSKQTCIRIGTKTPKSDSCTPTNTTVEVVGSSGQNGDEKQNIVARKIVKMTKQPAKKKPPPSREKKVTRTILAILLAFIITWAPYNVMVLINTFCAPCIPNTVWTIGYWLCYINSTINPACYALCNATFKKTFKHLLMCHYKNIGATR

[2] = biological target: T1, Muscarinic acetylcholine receptor M2; assay type: functional, cell-based; remark: listed apart in the source
[3] = biological target: T2, Adenosine receptor A3 (Homo sapiens, UniProt P0DMS8)
T2 sequence (P0DMS8 whole entry): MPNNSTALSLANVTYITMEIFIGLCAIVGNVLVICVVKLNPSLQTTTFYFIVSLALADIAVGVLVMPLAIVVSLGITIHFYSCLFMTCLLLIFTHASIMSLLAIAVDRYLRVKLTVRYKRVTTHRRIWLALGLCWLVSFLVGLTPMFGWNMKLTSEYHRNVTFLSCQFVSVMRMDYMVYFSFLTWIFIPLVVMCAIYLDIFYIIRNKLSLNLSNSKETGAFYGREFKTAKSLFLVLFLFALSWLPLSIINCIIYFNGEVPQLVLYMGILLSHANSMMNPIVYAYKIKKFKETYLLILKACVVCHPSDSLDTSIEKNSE

[4] = biological target: Histamine H2 receptor (Homo sapiens, UniProt P25021); assay type: functional, cell-based
[5] = biological target: T3, Gamma-aminobutyric acid receptor subunit alpha-1 (Rattus norvegicus, UniProt P62813)
[6] = biological target: T4, Adenosine receptor A1 (Homo sapiens, UniProt P30542)
T4 sequence (P30542 whole entry): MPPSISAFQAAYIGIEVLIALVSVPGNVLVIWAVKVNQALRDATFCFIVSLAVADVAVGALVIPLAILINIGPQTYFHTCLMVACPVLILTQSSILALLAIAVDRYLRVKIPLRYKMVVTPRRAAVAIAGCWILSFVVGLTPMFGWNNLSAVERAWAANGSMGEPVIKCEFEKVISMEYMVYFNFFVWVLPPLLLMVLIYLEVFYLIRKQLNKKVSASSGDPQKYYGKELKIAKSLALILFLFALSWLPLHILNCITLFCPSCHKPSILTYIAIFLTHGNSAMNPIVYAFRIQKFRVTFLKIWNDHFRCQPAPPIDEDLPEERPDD

[7] = biological target: Cannabinoid receptor 1 (Homo sapiens, UniProt P21554); assay type: functional, cell-based
[8] = biological target: Sodium-dependent dopamine transporter (Homo sapiens, UniProt Q01959)
[9] = biological target: T3, Gamma-aminobutyric acid receptor subunit alpha-1; assay type: functional
[10] = biological target: Melanocortin receptor 4 (Homo sapiens, UniProt P32245)
[11] = biological target: Voltage-dependent L-type calcium channel subunit alpha-1C (Rattus norvegicus, UniProt P22002); assay type: functional
[12] = biological target: Vasopressin V1a receptor (Homo sapiens, UniProt P37288)
[13] = biological target: Growth hormone secretagogue receptor type 1 (Homo sapiens, UniProt Q92847)
[14] = biological target: T5, Type-1 angiotensin II receptor (Homo sapiens, UniProt P30556)
T5 sequence (P30556 whole entry): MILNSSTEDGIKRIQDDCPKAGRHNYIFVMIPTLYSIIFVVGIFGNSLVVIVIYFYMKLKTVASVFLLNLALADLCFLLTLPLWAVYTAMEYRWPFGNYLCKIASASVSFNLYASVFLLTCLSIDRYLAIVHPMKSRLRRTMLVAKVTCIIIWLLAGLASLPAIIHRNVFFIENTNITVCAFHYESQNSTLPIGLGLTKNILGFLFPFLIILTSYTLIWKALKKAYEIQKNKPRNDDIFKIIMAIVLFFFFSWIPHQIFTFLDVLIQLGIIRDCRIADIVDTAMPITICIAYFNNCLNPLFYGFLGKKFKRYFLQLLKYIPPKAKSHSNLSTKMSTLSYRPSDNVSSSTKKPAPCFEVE
Further: assay procedure not described here.

Chain of Cannabinoid receptor 1 (P21554 whole entry): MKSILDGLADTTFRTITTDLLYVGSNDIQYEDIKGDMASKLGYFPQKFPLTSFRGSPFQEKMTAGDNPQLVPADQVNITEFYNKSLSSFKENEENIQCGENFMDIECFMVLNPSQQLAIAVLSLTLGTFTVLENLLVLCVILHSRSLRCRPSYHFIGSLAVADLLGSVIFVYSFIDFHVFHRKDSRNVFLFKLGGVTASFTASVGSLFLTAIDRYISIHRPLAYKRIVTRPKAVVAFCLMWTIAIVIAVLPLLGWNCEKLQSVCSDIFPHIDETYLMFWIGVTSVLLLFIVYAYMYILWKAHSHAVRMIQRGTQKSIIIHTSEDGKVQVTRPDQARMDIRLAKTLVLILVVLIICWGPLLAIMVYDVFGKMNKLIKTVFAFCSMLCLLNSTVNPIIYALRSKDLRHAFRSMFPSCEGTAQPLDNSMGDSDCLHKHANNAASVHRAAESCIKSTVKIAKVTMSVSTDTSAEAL
Chain of Histamine H2 receptor (P25021 whole entry): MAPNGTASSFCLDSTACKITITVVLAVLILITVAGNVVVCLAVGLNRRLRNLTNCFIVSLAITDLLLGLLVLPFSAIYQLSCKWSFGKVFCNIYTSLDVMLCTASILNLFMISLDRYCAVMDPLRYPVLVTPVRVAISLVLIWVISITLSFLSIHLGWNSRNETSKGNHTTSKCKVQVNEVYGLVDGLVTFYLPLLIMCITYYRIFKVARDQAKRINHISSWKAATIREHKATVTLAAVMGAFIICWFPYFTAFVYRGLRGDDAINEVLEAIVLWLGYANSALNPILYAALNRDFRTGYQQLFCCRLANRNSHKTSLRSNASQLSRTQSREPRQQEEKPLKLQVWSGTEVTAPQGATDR
Chain of Sodium-dependent dopamine transporter (Q01959 whole entry): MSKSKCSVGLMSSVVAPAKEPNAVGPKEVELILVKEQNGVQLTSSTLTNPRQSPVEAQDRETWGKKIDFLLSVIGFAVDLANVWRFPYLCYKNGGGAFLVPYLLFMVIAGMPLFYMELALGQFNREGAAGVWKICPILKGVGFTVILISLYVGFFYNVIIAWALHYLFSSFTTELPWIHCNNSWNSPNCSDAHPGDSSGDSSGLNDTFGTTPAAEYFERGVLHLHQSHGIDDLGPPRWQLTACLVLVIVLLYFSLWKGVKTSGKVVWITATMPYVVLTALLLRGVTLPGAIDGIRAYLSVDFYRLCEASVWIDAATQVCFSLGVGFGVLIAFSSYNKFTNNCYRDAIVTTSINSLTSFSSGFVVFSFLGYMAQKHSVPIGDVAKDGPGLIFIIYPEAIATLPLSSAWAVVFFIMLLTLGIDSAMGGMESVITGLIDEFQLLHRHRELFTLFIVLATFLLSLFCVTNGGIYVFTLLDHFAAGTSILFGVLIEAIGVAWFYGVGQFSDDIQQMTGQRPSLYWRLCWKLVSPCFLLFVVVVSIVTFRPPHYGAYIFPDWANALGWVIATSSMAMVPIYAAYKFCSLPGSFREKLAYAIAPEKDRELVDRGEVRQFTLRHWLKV
T3 sequence (P62813 whole entry): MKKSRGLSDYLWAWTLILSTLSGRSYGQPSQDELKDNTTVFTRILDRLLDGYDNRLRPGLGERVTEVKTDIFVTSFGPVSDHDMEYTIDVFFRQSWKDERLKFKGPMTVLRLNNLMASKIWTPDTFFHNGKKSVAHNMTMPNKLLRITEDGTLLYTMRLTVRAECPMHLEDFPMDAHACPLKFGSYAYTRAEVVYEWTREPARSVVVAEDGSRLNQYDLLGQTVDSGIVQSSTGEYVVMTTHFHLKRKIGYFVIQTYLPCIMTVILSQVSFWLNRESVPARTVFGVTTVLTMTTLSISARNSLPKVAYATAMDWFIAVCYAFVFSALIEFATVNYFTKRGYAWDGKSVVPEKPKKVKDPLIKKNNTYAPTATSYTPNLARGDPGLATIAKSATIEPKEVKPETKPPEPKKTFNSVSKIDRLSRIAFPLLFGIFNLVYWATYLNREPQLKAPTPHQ
Chain of Vasopressin V1a receptor (P37288 whole entry): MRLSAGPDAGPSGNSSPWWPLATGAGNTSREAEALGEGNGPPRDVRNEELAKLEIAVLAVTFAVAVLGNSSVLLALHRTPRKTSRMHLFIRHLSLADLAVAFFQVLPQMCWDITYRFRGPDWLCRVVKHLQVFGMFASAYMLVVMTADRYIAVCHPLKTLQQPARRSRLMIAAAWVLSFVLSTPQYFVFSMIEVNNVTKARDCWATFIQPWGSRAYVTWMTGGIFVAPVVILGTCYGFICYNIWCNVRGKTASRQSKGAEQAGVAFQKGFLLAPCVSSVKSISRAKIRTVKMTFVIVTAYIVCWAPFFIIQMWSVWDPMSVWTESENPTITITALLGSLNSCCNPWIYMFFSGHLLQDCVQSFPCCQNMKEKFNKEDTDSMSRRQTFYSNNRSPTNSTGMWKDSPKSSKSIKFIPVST
Chain of Melanocortin receptor 4 (P32245 whole entry): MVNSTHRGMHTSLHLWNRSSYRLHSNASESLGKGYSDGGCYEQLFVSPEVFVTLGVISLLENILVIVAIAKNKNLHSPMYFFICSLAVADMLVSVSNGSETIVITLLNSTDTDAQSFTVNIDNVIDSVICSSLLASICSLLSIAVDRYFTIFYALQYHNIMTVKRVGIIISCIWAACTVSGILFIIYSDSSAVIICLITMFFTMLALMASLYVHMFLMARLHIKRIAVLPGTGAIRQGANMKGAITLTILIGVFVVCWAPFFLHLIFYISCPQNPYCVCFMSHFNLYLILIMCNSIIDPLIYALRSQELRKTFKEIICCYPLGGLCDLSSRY
Chain of Voltage-dependent L-type calcium channel subunit alpha-1C (P22002 whole entry): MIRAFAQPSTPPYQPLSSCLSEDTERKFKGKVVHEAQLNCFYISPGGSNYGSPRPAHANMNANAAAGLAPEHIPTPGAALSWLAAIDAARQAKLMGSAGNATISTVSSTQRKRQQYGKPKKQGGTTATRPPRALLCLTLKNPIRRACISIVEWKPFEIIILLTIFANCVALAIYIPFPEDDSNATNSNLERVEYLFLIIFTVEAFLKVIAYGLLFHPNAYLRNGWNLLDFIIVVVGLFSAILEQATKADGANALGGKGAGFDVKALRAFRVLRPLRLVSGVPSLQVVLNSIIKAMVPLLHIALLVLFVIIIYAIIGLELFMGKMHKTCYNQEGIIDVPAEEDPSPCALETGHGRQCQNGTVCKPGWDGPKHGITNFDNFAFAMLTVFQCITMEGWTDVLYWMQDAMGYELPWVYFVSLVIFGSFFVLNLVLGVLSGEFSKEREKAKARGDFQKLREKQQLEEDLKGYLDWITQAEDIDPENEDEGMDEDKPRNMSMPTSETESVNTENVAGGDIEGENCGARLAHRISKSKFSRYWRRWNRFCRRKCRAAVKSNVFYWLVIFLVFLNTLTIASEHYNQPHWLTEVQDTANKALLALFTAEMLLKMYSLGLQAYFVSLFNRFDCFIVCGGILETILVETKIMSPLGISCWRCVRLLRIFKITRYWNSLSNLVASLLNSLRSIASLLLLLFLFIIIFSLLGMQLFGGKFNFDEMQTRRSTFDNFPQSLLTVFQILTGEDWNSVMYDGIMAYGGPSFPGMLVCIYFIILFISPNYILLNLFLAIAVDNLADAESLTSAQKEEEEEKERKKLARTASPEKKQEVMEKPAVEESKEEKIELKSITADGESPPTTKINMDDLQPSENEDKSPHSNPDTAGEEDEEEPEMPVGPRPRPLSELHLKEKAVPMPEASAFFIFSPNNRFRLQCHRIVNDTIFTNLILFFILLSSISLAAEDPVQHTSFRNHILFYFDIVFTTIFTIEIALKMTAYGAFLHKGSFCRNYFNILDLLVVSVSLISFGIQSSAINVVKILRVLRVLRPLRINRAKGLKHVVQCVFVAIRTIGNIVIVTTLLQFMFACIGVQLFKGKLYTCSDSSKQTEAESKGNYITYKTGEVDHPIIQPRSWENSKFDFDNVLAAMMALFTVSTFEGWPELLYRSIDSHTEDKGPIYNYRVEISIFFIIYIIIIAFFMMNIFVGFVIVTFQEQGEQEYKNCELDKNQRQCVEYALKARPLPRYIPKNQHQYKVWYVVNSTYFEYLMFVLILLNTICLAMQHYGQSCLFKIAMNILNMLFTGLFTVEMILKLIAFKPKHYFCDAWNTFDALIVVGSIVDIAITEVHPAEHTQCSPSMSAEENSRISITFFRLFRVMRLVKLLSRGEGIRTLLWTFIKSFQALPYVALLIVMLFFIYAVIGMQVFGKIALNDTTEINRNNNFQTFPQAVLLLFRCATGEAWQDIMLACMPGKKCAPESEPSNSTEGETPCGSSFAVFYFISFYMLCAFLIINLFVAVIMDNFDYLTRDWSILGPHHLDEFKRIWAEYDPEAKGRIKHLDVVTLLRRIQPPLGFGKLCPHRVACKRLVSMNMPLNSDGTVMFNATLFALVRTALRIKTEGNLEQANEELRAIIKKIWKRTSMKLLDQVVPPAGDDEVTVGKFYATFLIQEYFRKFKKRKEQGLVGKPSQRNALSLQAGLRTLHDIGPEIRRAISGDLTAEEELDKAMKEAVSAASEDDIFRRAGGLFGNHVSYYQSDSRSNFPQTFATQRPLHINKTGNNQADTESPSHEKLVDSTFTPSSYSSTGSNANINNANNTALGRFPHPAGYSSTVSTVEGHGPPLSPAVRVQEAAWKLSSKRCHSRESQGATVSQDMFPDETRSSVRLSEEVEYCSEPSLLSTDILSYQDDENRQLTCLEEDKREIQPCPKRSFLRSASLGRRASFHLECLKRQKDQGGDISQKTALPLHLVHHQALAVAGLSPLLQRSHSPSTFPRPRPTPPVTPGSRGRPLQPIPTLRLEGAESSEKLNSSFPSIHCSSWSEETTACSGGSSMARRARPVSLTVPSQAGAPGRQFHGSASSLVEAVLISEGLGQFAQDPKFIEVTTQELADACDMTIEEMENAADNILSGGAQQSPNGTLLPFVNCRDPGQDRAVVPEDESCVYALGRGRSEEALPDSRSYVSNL

Structure (SMILES) | AC50 [1] | AC50 [2] | AC50 [3] | AC50 [4] | AC50 [5] | AC50 [6] | AC50 [7] | AC50 [8] | AC50 [9] | AC50 [10] | AC50 [11] | AC50 [12] | AC50 [13] | AC50 [14]
O=C1C(CC[S+]([O-])c2ccccc2)C(=O)N(c2ccccc2)N1c1ccccc1 (stereo not given) [SULFINPYRAZONE] | > 10 µM | > 10 µM | > 10 µM | > 10 µM | > 10 µM | > 10 µM | > 30 µM | > 10 µM | > 10 µM | > 10 µM | > 10 µM | > 10 µM | > 10 µM | > 10 µM
Cc1onc(-c2ccccc2)c1-c1ccc(S(N)(=O)=O)cc1 [VALDECOXIB] | > 10 µM | > 10 µM | > 30 µM | > 10 µM | > 10 µM | 27.7 µM | > 30 µM | > 30 µM | > 10 µM | > 30 µM | > 10 µM | > 30 µM | > 30 µM | > 30 µM
CCCN(CCC)C(=O)Cc1c(-c2ccc(Cl)cc2)nc2ccc(Cl)cn12 [ALPIDEM] | > 30 µM | > 30 µM | 11.5 µM | > 30 µM | > 30 µM | > 30 µM | – | > 30 µM | 0.0431 µM | > 30 µM | > 30 µM | > 30 µM | > 30 µM | > 30 µM
COc1cc2nc(N3CCN(C(=O)C4CCCO4)CC3)nc(N)c2cc1OC (stereo not given) [TERAZOSIN] | > 10 µM | > 10 µM | > 30 µM | > 10 µM | > 10 µM | > 30 µM | > 30 µM | > 10 µM | > 10 µM | > 30 µM | – | > 10 µM | > 30 µM | > 30 µM
CCCC(CCC)C(=O)O [VALPROIC ACID] | > 10 µM | > 10 µM | > 30 µM | – | > 10 µM | > 30 µM | – | 4.97 µM | > 10 µM | > 30 µM | > 10 µM | > 30 µM | > 30 µM | > 30 µM
O=C1CCc2cc(OCCCCc3nnnn3C3CCCCC3)ccc2N1 [CILOSTAZOL] | > 30 µM | > 30 µM | 18.2 µM | > 30 µM | > 30 µM | > 30 µM | > 30 µM | > 30 µM | > 30 µM | > 30 µM | > 30 µM | – | > 30 µM | > 30 µM
C=C[C@H]1C[N@@]2CC[C@H]1C[C@@H]2[C@@H](O)c1ccnc2ccc(OC)cc12 [QUINIDINE] | > 10 µM | > 10 µM | > 30 µM | > 10 µM | – | > 30 µM | > 30 µM | 9.56 µM | – | > 30 µM | – | > 30 µM | > 30 µM | > 30 µM
COc1ccc(CC2c3cc(OC)c(OC)cc3CC[N+]2(C)CCC(=O)OCCCCCOC(=O)CC[N+]2(C)CCc3cc(OC)c(OC)cc3C2Cc2ccc(OC)c(OC)c2)cc1OC (stereo not given) | > 30 µM | > 30 µM | > 30 µM | > 30 µM | > 30 µM | > 30 µM | – | > 30 µM | > 30 µM | > 30 µM | > 30 µM | > 30 µM | 11.2 µM | > 30 µM
N[C@@H](CC(=O)N1CCn2c(nnc2C(F)(F)F)C1)Cc1cc(F)c(F)cc1F [SITAGLIPTIN] | > 30 µM | > 30 µM | > 30 µM | – | > 10 µM | > 30 µM | > 30 µM | > 30 µM | > 30 µM | > 10 µM | > 10 µM | > 30 µM | > 30 µM | > 30 µM
CC(C(=O)O)c1ccc2c(c1)[nH]c1ccc(Cl)cc12 (stereo not given) [CARPROFEN] | > 10 µM | > 10 µM | > 30 µM | > 10 µM | > 10 µM | > 30 µM | – | > 30 µM | > 10 µM | > 10 µM | > 10 µM | > 30 µM | > 30 µM | > 30 µM
CN1C(C(=O)Nc2ccccn2)=C(O)c2ccccc2S1(=O)=O [PIROXICAM] | > 10 µM | > 10 µM | > 10 µM | > 30 µM | > 10 µM | > 10 µM | – | > 10 µM | > 10 µM | > 10 µM | > 10 µM | > 10 µM | > 10 µM | > 30 µM
C[C@@H](Oc1cc(-c2cnn(C3CCNCC3)c2)cnc1N)c1c(Cl)ccc(F)c1Cl [CRIZOTINIB] | > 10 µM | > 10 µM | 8.93 µM | – | – | > 30 µM | > 10 µM | 7.8 µM | > 30 µM | 19.8 µM | 1.56 µM | > 30 µM | 13.9 µM | 29 µM
O=C1CN(/N=C/c2ccc(-c3ccc([N+](=O)[O-])cc3)o2)C(O)=N1 [DANTROLENE] | > 10 µM | > 10 µM | > 30 µM | > 10 µM | > 10 µM | 25 µM | – | > 10 µM | > 10 µM | > 10 µM | > 10 µM | > 10 µM | > 10 µM | > 10 µM
CC(N)C12CC3CC(CC(C3)C1)C2 (stereo not given) [RIMANTADINE] | > 10 µM | > 10 µM | > 10 µM | > 10 µM | > 10 µM | > 10 µM | – | > 10 µM | > 10 µM | > 10 µM | > 10 µM | – | > 10 µM | > 10 µM
CC(C)c1nc(N(C)S(C)(=O)=O)nc(-c2ccc(F)cc2)c1/C=C/[C@@H](O)C[C@@H](O)CC(=O)O [ROSUVASTATIN] | > 30 µM | > 30 µM | > 30 µM | > 30 µM | > 30 µM | > 30 µM | > 30 µM | > 30 µM | > 30 µM | – | – | > 30 µM | > 30 µM | > 30 µM
CN(C)CC[C@@H](c1ccc(Cl)cc1)c1ccccn1 [DEXCHLORPHENIRAMINE] | 26 µM | > 30 µM | > 30 µM | > 30 µM | > 30 µM | > 30 µM | > 30 µM | – | > 30 µM | – | > 30 µM | > 30 µM | > 30 µM | > 30 µM
CCN(CC)CCNC(=O)c1c(C)[nH]c(/C=C2\C(=O)Nc3ccc(F)cc32)c1C [SUNITINIB] | > 10 µM | > 30 µM | 8.4 µM | > 30 µM | > 30 µM | 6.4 µM | > 30 µM | – | > 30 µM | – | > 30 µM | > 10 µM | 7.2 µM | 4.3 µM
